# Laboratory results from US20240426845A1, “METHOD FOR DETECTING A LIPIDATED PROTEIN VIA FLUORESCENCE RESONANCE ENERGY TRANSFER (FRET)” (Biogen MA Inc., priority 2021, published 2024).
# Assays:
# [1] = tested on: CCF-STTG1 astrocytoma cells (ApoE lipoprotein secretion); test: TR-FRET ApoE lipidation assay on media from CCF-STTG1 cells; format: cell-based; settings: Homo sapiens, media from CCF-STTG cells, 48 hours incubation, europium-conjugated anti-ApoE antibody and DiD, n=3, read-out: EC50 (TR-FRET signal, ApoE lipidation)
# Protocol: TR-FRET analysis was performed on an Envision plate reader (Perkin Elmer). The donor fluorophore (europium cryptate-conjugated antibody) was excited at 320 nm. A 40 μs delay occurred before measuring emission signals at 620 nm (donor fluorescence) and 665 nm wavelengths (DiD acceptor FRET signal) during a 400 μs window. Sample normalized FRET signal was determined by finding the ratio of the 665 nm emission to 620 nm emission.
# (§1) To test whether the TR-FRET assay detects lipidated proteins secreted from cells, the TR-FRET assay was tested on concentrated media from cultures of CCF-STTG1 astrocytoma cells grown in the absence and presence of T0901317, a LXR transcription factor agonist that induces ApoE lipoprotein secretion. Samples of concentrated media were mixed with TR-FRET buffer, europium-conjugated anti-ApoE3 antibody and DiD, incubated at 37° C. for 20 hours, and then fluorescence was measured using an Envision plate reader. As a control, samples were analyzed by native-PAGE gels, a conventional method of detecting lipidated proteins.
# [2] = tested on: CCF-STTG1 astrocytoma cells (ApoE lipoprotein secretion); test: native-PAGE gel of ApoE lipidation in conditioned media; format: cell-based; settings: CCF-STTG1 cell media following culture with compound
# Protocol: as §1
smiles,measurement,setting,value
O=S(=O)(c1ccccc1)N(CC(F)(F)F)c1ccc(C(O)(C(F)(F)F)C(F)(F)F)cc1 [T0901317],EC50,[1],50.2 nM
same,lipidated ApoE in cell media by native-PAGE,[2],dose-dependent accumulation of lipidated ApoE
